Test results taken from US20140296216A1, “PYRIMIDO[4,5-D]PYRIMIDINYL COMPOUNDS, PHARMACEUTICAL COMPOSITIONS AND USES THEREOF” (GUANGZHOU INSTITUTE OF BIOMEDICINE AND HEALTH, CHINESE …, priority 2011, published 2014).

Legend:
EGFRWT = EGFRWT (Homo sapiens, UniProt P00533); assay: In vitro enzymatic activity assay (Z'-LYTE), wild type EGFR; assay type: biochemical; settings: Z'-LYTE FRET peptide assay; read-out: EGFRWT kinase activity (IC50)
Source text: (§1) In vitro enzymatic activity assay: using Z′-LYTE™ technology (detect fluorescence, coupled-enzyme format, based on the differential sensitivity of phosphorylated and non-phosphorylated peptides to proteolytic cleavage), based on FRET, using Z′ LYTE™ FRET peptide substrate, detect the activity of compounds against enzymatic. […] After one hour, site specific protease which can recognize and cleaves non-phosphorylated FRET-peptide. After another hour, using an excitation wavelength of 400 nm excites, then detect the […] at 445 nm and 520 nm.

EGFRL861Q = EGFRL861Q (Homo sapiens, UniProt P00533, L861Q); assay: In vitro enzymatic activity assay (Z'-LYTE), EGFR L861Q; assay type: biochemical; settings: Z'-LYTE FRET peptide assay; read-out: EGFRL861Q kinase activity (IC50)
Source text: as §1

EGFRL858R = EGFRL858R (Homo sapiens, UniProt P00533, L858R); assay: In vitro enzymatic activity assay (Z'-LYTE), EGFR L858R; assay type: biochemical; settings: Z'-LYTE FRET peptide assay; read-out: EGFRL858R kinase activity (IC50)
EGFRL858R, sequence (P00533 25-1210 L858R): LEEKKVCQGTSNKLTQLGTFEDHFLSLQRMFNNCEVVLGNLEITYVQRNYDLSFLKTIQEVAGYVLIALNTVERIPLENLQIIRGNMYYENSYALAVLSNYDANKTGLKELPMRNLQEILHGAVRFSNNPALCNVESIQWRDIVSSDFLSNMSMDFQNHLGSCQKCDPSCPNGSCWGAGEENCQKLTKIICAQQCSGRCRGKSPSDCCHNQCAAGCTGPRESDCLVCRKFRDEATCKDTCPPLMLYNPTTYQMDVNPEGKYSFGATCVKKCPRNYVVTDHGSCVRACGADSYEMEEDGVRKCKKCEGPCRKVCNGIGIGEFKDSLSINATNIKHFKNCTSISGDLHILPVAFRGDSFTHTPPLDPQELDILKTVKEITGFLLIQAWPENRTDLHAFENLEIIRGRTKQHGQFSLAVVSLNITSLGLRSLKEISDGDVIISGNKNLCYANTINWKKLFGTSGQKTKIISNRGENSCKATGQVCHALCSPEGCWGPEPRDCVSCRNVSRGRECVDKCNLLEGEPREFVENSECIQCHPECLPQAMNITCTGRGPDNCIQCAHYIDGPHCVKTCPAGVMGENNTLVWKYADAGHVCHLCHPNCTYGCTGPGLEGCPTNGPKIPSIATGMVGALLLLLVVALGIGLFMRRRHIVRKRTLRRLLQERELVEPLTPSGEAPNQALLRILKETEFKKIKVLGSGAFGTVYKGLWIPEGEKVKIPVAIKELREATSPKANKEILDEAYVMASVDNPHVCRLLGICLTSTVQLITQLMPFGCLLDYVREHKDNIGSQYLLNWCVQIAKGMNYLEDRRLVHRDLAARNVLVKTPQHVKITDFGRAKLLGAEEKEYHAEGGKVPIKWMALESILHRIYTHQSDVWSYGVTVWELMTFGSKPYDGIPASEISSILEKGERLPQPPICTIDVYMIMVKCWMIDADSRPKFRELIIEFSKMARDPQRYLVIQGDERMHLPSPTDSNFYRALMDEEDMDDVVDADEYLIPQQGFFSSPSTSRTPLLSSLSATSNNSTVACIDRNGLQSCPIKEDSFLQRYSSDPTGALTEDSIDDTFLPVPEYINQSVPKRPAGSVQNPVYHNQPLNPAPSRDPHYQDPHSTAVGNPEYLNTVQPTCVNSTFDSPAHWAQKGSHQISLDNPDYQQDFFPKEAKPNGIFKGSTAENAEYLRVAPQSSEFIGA
Source text: as §1

EGFR T790M kinase = target: T1, EGFR T790M kinase (Homo sapiens, UniProt P00533, T790M); assay: In vitro enzymatic activity assay (Z'-LYTE), EGFR T790M; assay type: biochemical; settings: Z'-LYTE FRET peptide assay; read-out: EGFRT790M kinase activity (IC50)
T1 construct: purchased invitrogen PV4803
T1 sequence (P00533 25-1210 T790M): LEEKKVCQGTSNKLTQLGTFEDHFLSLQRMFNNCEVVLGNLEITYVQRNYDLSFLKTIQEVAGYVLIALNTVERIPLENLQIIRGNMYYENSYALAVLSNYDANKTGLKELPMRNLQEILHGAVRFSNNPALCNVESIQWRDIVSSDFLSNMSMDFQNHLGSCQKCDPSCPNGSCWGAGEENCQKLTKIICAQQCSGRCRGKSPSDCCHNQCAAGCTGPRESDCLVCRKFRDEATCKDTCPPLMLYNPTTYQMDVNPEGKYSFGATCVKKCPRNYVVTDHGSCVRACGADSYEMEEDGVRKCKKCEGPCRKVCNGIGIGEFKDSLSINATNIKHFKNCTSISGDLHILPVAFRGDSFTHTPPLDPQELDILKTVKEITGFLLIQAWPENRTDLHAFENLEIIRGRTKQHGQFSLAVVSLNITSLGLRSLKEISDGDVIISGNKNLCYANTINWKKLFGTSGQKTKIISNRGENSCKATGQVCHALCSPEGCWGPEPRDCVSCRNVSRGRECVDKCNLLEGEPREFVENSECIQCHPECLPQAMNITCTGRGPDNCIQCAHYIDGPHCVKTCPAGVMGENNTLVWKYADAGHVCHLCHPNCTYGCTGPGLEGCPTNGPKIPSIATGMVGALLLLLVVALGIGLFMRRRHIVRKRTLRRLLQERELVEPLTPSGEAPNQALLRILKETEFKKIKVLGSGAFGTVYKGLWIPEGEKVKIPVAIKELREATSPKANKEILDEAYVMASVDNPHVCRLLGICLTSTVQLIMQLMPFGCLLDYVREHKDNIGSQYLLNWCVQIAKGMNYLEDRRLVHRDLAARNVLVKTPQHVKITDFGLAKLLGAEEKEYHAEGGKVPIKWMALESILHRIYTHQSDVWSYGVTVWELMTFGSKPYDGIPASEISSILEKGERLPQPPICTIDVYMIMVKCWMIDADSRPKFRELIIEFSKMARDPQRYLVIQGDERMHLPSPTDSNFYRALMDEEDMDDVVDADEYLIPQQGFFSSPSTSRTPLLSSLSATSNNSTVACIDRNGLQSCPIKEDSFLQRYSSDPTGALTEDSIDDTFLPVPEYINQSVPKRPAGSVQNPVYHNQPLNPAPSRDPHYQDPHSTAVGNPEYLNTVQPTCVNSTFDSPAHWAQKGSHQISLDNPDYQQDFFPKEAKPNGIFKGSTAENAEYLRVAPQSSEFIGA
Source text: as §1

EGFRL858R + T790M = EGFRL858R + T790M (Homo sapiens, UniProt P00533, L858R/T790M); assay: In vitro enzymatic activity assay (Z'-LYTE), EGFR L858R + T790M; assay type: biochemical; settings: Z'-LYTE FRET peptide assay; read-out: EGFRL858R + T790M kinase activity (IC50)
EGFRL858R + T790M, sequence (P00533 25-1210 T790M/L858R): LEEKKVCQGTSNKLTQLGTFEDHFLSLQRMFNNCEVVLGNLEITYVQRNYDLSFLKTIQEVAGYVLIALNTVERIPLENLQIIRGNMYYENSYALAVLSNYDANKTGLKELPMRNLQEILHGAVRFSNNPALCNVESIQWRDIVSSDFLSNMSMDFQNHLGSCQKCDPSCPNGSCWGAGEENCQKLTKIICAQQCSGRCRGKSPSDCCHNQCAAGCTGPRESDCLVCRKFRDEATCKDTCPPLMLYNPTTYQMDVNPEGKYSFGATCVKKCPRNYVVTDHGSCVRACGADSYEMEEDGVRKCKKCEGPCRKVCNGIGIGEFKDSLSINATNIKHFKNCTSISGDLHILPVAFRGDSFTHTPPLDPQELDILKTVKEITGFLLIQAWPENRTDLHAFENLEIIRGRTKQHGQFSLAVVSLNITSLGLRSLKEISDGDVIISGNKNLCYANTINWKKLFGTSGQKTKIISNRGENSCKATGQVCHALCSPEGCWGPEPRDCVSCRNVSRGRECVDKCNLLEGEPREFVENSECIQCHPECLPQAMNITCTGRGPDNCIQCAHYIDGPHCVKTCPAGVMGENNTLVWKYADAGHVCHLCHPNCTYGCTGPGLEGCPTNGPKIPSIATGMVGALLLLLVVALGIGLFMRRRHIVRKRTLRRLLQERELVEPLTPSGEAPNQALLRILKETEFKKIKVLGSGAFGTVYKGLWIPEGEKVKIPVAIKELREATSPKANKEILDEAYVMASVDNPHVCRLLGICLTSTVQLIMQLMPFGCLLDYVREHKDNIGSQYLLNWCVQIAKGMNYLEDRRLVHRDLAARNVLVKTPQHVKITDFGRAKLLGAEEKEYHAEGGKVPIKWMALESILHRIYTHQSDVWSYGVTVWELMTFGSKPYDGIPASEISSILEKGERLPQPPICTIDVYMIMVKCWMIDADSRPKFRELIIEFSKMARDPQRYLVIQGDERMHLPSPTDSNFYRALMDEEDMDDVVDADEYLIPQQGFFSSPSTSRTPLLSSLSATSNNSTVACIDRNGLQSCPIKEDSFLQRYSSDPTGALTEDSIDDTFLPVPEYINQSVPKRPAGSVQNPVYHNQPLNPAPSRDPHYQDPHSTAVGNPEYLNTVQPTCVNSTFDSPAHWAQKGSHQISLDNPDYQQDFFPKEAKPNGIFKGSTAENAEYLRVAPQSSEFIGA
Source text: as §1

[1] = test system: H1975 (lung cancer cells, EGFR L858R&T790M); assay: Cell proliferation by MTT, H1975; assay type: cell-based; settings: Homo sapiens, NCI-H1975, read-out: H1975 50% inhibitory concentration (IC50), 72 h
[2] = test system: HCC827 (lung cancer cells, EGFR E746-A750 deletion); assay: Cell proliferation by MTT, HCC827; assay type: cell-based; settings: Homo sapiens, HCC827, read-out: HCC827 50% inhibitory concentration (IC50), 72 h
[3] = test system: A431 (Human epidermal carcinoma, EGFR high expression); assay: Cell proliferation by MTT, A431; assay type: cell-based; settings: A-431, read-out: A431 50% inhibitory concentration (IC50), 72 h

EGFRWT, sequence (P00533 25-1210): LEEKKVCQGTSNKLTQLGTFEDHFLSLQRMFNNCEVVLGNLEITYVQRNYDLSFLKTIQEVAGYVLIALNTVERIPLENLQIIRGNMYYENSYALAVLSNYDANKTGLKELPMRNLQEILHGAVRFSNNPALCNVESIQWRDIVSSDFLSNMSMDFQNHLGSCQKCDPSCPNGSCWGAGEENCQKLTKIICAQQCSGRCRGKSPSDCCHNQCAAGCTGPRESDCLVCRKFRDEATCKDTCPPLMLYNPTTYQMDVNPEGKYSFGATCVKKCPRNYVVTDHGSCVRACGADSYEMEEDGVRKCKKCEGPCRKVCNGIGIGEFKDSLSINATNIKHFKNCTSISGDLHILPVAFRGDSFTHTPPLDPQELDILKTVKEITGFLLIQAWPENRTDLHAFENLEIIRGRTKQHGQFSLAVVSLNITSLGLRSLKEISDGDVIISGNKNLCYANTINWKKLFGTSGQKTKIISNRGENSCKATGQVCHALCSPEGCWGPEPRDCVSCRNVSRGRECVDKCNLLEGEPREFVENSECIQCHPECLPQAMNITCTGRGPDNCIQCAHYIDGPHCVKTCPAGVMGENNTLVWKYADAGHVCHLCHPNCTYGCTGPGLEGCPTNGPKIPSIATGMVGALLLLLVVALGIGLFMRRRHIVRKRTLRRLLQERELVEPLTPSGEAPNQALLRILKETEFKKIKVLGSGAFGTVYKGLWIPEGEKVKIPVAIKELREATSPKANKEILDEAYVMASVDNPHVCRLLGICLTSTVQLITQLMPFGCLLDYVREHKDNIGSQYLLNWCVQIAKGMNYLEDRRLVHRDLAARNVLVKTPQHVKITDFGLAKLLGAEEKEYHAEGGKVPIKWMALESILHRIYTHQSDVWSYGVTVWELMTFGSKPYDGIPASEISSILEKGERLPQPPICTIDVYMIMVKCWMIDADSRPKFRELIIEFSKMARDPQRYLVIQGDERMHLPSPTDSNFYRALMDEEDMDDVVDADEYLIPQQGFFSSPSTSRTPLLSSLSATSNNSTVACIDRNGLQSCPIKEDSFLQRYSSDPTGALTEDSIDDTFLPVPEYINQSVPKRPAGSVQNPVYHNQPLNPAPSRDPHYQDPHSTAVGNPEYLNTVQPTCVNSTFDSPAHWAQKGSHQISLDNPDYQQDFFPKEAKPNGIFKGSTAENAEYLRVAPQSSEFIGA

IC50 (EGFRWT) [nM]	IC50 (EGFRL861Q) [nM]	IC50 (EGFRL858R) [nM]	IC50 (EGFR T790M kinase) [nM]	IC50 (EGFRL858R + T790M) [nM]	IC50 [1] [nM]	IC50 [2] [nM]	IC50 [3] [nM]	Compound
≤ 10	≤ 10	≤ 10	≤ 10	≤ 10				C=CC(=O)Nc1cccc(N2C(=O)N(c3cccc(Cl)c3)Cc3cnc(Nc4ccc(N5CCN(C)CC5)cc4OC)nc32)c1 [C-EGF35, N-(3-(3-(3-chlorophenyl)-7-(2-methoxy-4-(4-methylpiperazin-1-yl)phenylamino)-2-oxo-3,4-dihydropyrimido[4,5-d]pyrimidin-1(2H)-yl)phenyl)acrylamide]
≤ 10	≤ 10	≤ 10	≤ 10	≤ 10				C=CC(=O)Nc1cccc(N2C(=O)N(c3cccc(C#N)c3)Cc3cnc(Nc4ccc(N5CCN(C)CC5)cc4OC)nc32)c1 [C-EGF36, N-(3-(3-(3-cyanophenyl)-7-(2-methoxy-4-(4-methylpiperazin-1-yl)phenylamino)-2-oxo-3,4-dihydropyrimido[4,5-d]pyrimidin-1(2H)-yl)phenyl)acrylamide]
≤ 10	≤ 10	≤ 10	10 to 100	10 to 100				C=CC(=O)Nc1cccc(N2C(=O)N(c3cccc([N+](=O)[O-])c3)Cc3cnc(Nc4ccc(N5CCN(C)CC5)cc4OC)nc32)c1 [C-EGF37, N-(3-(7-(2-methoxy-4-(4-methylpiperazin-1-yl)phenylamino)-3-(3-nitrophenyl)-2-oxo-3,4-dihydropyrimido[4,5-d]pyrimidin-1(2H)-yl)phenyl)acrylamide]
≤ 10	≤ 10	≤ 10	≤ 10	≤ 10				C=CC(=O)Nc1cccc(N2C(=O)N(c3ccc(F)c(Cl)c3)Cc3cnc(Nc4ccc(N5CCN(C)CC5)cc4OC)nc32)c1 [C-EGF38, N-(3-(3-(3-chloro-4-fluorophenyl)-7-(2-methoxy-4-(4-methylpiperazin-1-yl)phenylamino)-2-oxo-3,4-dihydropyrimido[4,5-d]pyrimidin-1(2H)-yl)phenyl)acrylamide]
≤ 10	≤ 10	≤ 10	≤ 10	≤ 10				C=CC(=O)Nc1cccc(N2C(=O)N(c3ccccc3C)Cc3cnc(Nc4ccc(N5CCN(C)CC5)cc4OC)nc32)c1 [C-EGF39, N-(3-(7-(2-methoxy-4-(4-methylpiperazin-1-yl)phenylamino)-2-oxo-3-o-tolyl-3,4-dihydropyrimido[4,5-d]pyrimidin-1(2H)-yl)phenyl)acrylamide]
≤ 10	≤ 10	≤ 10	10 to 100	10 to 100				C=CS(=O)(=O)Nc1cccc(N2C(=O)N(C)Cc3cnc(Nc4ccc(N5CCN(C)CC5)cc4OC)nc32)c1 [C-EGF40, N-(3-(7-(2-methoxy-4-(4-methylpiperazin-1-yl)phenylamino)-3-methyl-2-oxo-3,4-dihydropyrimido[4,5-d]pyrimidin-1(2H)-yl)phenyl)ethenesulfonamide]
≤ 10	≤ 10	≤ 10	≤ 10	≤ 10				C=CC(=O)Nc1ccc(F)c(N2C(=O)N(Cc3ccccc3)Cc3cnc(Nc4ccc(N5CCN(C)CC5)cc4OC)nc32)c1 [C-EGF41, N-(3-(3-benzyl-7-(2-methoxy-4-(4-methylpiperazin-1-yl)phenylamino)-2-oxo-3,4-dihydropyrimido[4,5-d]pyrimidin-1(2H)-yl)-4-fluorophenyl)acrylamide]

Continued, compound first:

Compound	IC50 (EGFRWT) [nM]	IC50 (EGFRL861Q) [nM]	IC50 (EGFRL858R) [nM]	IC50 (EGFR T790M kinase) [nM]	IC50 (EGFRL858R + T790M) [nM]	IC50 [1] [nM]	IC50 [2] [nM]	IC50 [3] [nM]
C=CC(=O)Nc1cccc(N2C(=O)N(C)Cc3cnc(Nc4ccc(N5CC[C@@H](N(C)C)C5)cc4OC)nc32)c1 [C-EGF15, (R)—N-(3-(7-(4-(3-(dimethylamino)pyrrolidin-1-yl)-2-methoxyphenylamino)-3-methyl-2-oxo-3,4-dihydropyrimido[4,5-d]pyrimidin-1(2H)-yl)phenyl)acrylamide]	10 to 100	≤ 10	≤ 10	10 to 100	≤ 10	449		
C=CC(=O)Nc1cccc(N2C(=O)N(C)Cc3cnc(Nc4ccc(N5CC[C@H](N(C)C)C5)cc4OC)nc32)c1 [C-EGF16, (S)—N-(3-(7-(4-(3-(dimethylamino)pyrrolidin-1-yl)-2-methoxyphenylamino)-3-methyl-2-oxo-3,4-dihydropyrimido[4,5-d]pyrimidin-1(2H)-yl)phenyl)acrylamide]	≤ 10	≤ 10	≤ 10	10 to 100	≤ 10	380		
C=CC(=O)Nc1cccc(N2C(=O)N(C)Cc3cnc(Nc4ccc(N5CCN(C(C)=O)CC5)cc4OC)nc32)c1 [C-EGF20, N-(3-(7-(4-(4-acetylpiperazin-1-yl)-2-methoxyphenylamino)-3-methyl-2-oxo-3,4-dihydropyrimido[4,5-d]pyrimidin-1(2H)-yl)phenyl)acrylamide]	≤ 10	≤ 10	≤ 10	≤ 10	≤ 10	143		
C=CC(=O)Nc1cccc(N2C(=O)N(c3ccccc3)Cc3cnc(Nc4ccc(N5CCN(C)CC5)cc4OC)nc32)c1 [C-EGF27, N-(3-(7-(2-methoxy-4-(4-methylpiperazin-1-yl)phenylamino)-2-oxo-3-phenyl-3,4-dihydropyrimido[4,5-d]pyrimidin-1(2H)-yl)phenyl)acrylamide]	≤ 10	≤ 10	≤ 10	≤ 10	≤ 10			
C=CC(=O)Nc1cccc(N2C(=O)N(c3cccc4ccccc34)Cc3cnc(Nc4ccc(N5CCN(C)CC5)cc4OC)nc32)c1 [C-EGF28, N-(3-(7-(2-methoxy-4-(4-methylpiperazin-1-yl)phenylamino)-3-(naphthalen-1-yl)-2-oxo-3,4-dihydropyrimido[4,5-d]pyrimidin-1(2H)-yl)phenyl)acrylamide]	≤ 10	≤ 10	≤ 10	≤ 10	≤ 10	30	6	
C=CC(=O)Nc1cccc(N2C(=O)N(Cc3ccccc3)Cc3cnc(Nc4ccc(N5CCN(C)CC5)cc4OC)nc32)c1 [C-EGF29, N-(3-(3-benzyl-7-(2-methoxy-4-(4-methylpiperazin-1-yl)phenylamino)-2-oxo-3,4-dihydropyrimido[4,5-d]pyrimidin-1(2H)-yl)phenyl)acrylamide]	≤ 10	≤ 10	≤ 10	≤ 10	≤ 10			
C=CC(=O)Nc1cccc(N2C(=O)N(c3ccc(-c4ccccc4)cc3)Cc3cnc(Nc4ccc(N5CCN(C)CC5)cc4OC)nc32)c1 [C-EGF30, N-(3-(3-(biphenyl-4-yl)-7-(2-methoxy-4-(4-methylpiperazin-1-yl)phenylamino)-2-oxo-3,4-dihydropyrimido[4,5-d]pyrimidin-1(2H)-yl)phenyl)acrylamide]	≤ 10	≤ 10	≤ 10	≤ 10	≤ 10			
C=CC(=O)Nc1cccc(N2C(=O)N(c3ccc(Oc4ccccc4)cc3)Cc3cnc(Nc4ccc(N5CCN(C)CC5)cc4OC)nc32)c1 [C-EGF31, N-(3-(7-(2-methoxy-4-(4-methylpiperazin-1-yl)phenylamino)-2-oxo-3-(4-phenoxyphenyl)-3,4-dihydropyrimido[4,5-d]pyrimidin-1(2H)-yl)phenyl)acrylamide]	≤ 10	≤ 10	≤ 10	≤ 10	≤ 10			
C=CC(=O)Nc1cccc(N2C(=O)N(c3ccc(OCc4ccccc4)cc3)Cc3cnc(Nc4ccc(N5CCN(C)CC5)cc4OC)nc32)c1 [C-EGF32, N-(3-(3-(4-(benzyloxy)phenyl)-7-(2-methoxy-4-(4-methylpiperazin-1-yl)phenylamino)-2-oxo-3,4-dihydropyrimido[4,5-d]pyrimidin-1(2H)-yl)phenyl)acrylamide]	≤ 10	≤ 10	≤ 10	≤ 10	≤ 10			
CCC(=O)Nc1cccc(N2C(=O)N(C)Cc3cnc(Nc4ccc(N5CCN(C)CC5)cc4OC)nc32)c1 [C-EGF34, N-(3-(7-(2-methoxy-4-(4-methylpiperazin-1-yl)phenylamino)-3-methyl-2-oxo-3,4-dihydropyrimido[4,5-d]pyrimidin-1(2H)-yl)phenyl)propionamide]	1000 to 10000	1000 to 10000	1000 to 10000	1000 to 10000	1000 to 10000	> 20000		> 30000
